{"source": "patent US7442380B2", "about": "“Treatment of diseases caused by viral infection” (Apodemus AB, priority 2003, dated 2008)", "key": {"Bank voles with diabetes": {"system": "Bank voles with diabetes", "assay": "Diabetic bank voles, oral Pleconaril, glucose tolerance test", "type": "in vivo", "details": "100 mg/kg per day for seven days orally in drinking water; GTT 60 min, day before treatment vs 15 days later; none of six control animals", "protocol": "Bank voles with diabetes were randomised into 2 groups one treated with Pleconaril and one not receiving any treatment. Treated animals were given 100 mg Pleconaril per kg body weight per day seven days. The drug was administered orally in the drinking water. All animals were subjected to a glucose tolerance test the day before the treatment and again 15 days later. Glucose tolerance test was performed by administrating 2 grams of glucose per kg BW intraperitoneally. The blood glucose levels were measured after 60 min."}, "[1]": {"system": "control picornavirus known not to be sensitive to Pleconaril", "assay": "Tissue culture with Pleconaril, control picornavirus known not to be sensitive", "type": "cell-based", "details": "any amount of the virus, 1,6 micrograms Pleconaril per ml", "excerpt": "(§1) Ljungan virus was first tested in tissue culture of Vero cells in combination with Pleconaril. 1,6 micrograms of active substance per ml of the tissue culture medium were used. This dose was used in all experiment below where it says “with Pleconaril”.\n(§2) For a control picornavirus known not to be sensitive to Pleconaril no inhibition of any amount of the virus can be detected. […] This means that Ljungan virus is semi-sensitive” or “semi-resistant” to Pleconaril."}, "[2]": {"system": "arctic fox with severe encephalitis (Ljungan virus)", "assay": "Encephalitis in arctic fox treated with Pleconaril", "type": "in vivo", "details": "one arctic fox, 50 mg/kg twice daily for 7 days", "excerpt": "The arctic fox in Sweden is a species close to being extinct. The reason for this is unknown. Nordens Ark has a breeding program for arctic foxes with the aim to save the species. However, several animals in captivity have developed encephalitis and died. Nordens Ark has lost almost all their animals. The encephalitis is a slow progressing disease often starting with stereotypic behaviour followed by visual problem, loss of smell and loss of muscle coordination. The condition is slowly progressing over several months leading to the deaths of the animal. No spontaneous recovery has been seen in any of the arctic foxes observed.\nLjungan virus was isolated from the brain of one arctic fox suffering from encephalitis. Ljungan virus RNA was also detected by PCR in the brain and the heart of the same individual. Ljungan virus could also be detected in the brain and the heart by immunohistochemistry.\nOne arctic fox with severe encephalitis was treated with 50 mg/kg of Pleconaril twice daily for 7 days."}, "[3]": {"system": "picornavirus known to be sensitive to Pleconaril", "assay": "Tissue culture with Pleconaril, picornavirus known to be sensitive", "type": "cell-based", "details": "10 000 000 TCID, 1,6 micrograms Pleconaril per ml", "excerpt": "as §1, §2"}, "Ljungan virus (LV145 SL)": {"system": "Ljungan virus (LV145 SL)", "assay": "Antiviral therapy of diabetes in male offspring of Ljungan virus infected laboratory mice", "type": "in vivo, CD1 mice", "details": "for frequency of animals with diabetes, as measured by GTT: vs infected untreated mice", "protocol": "Glucose tolerance test was performed to determine the diagnosis of diabetes. In this test 2 g glucose per kg body weight was administrated intraperitoneally (as 100 mg glucose/ml solution). Blood glucose was measured (Medisence Precision PCx Abbott Laboratories) just before the glucose injection and at 60 and 120 minutes post administration. Diabetes was defined as a blood glucose level above 200 mg/dL in a glucose tolerance test at 120 min.\nAbdominal fat in male mice was measured by dissecting out the bilateral scrotal fat cushion. The total weight of both fat cushions was used.\nThe serum insulin level was measured using a rat insulin high range ELISA kit (Mercodia AB, Uppsala, Sweden) according to the instructions of the manufacturer. Islets prepared from the pancreas were assayed for insulin release and glucose oxidation assay described elsewhere (Blixt, M., Niklasson, B. & Sandler, S. Characterization of β-cell function of pancreatic islets isolated from bank voles developing glucose intolerance/diabetes: an animal model showing features of both type 1 and type 2 diabetes mellitus. Manuscript submitted).\nPregnant outbred CD1 mice (CD-1 (ICR) Br Charles River laboratories, Germany) were infected intraperitoneally with 1000 ID50 units of LV145 SL two days after conception. Control animals were given an injection with the same volume with normal saline at the same time. All female mice were kept in individual cages and followed for the development of gestational diabetes, pregnancy outcome and development of diabetes in the offspring. In half of the infected pregnant mice, mild stress was induced by adding glucose (100 g/liter) to drinking water, performing weekly weights and glucose tolerance testing during the last week of pregnancy. The uninfected control group of pregnant mice was also subjected to stress. Antiviral therapy using LV-specific murine antisera or the oral antiviral compound Pleconaril (200 mg per kg body weight) administrated once a day for 4 consecutive days or a combination of antiserum and Pleconaril was initiated at 5 weeks of age (11-13). At 15 weeks animals were tested by a glucose tolerance test (GTT). Also, serum insulin level and abdominal fat were measured and the histopathology of the pancreas was examined.\nAntiviral therapy using LV-specific murine antisera (group IV) or the oral antiviral compound Pleconaril (200 mg per kg body weight) administrated once a day for 4 consecutive days (group III) or a combination of antiserum and Pleconaril (group V) was initiated at 5 weeks of age.\nMice were treated with a combination of Pleconaril and antisera and interferon α. Interferon a was given as 2×10^7 IU/kg/day during three consecutive days during the same week Pleconaril and specific immunoglobulin was administrated. […] In addition, the combination therapy (Pleconaril, antisera, and interferon) normalize the amount of abdominal fat and the level of serum insulin, reducing them to normal levels."}, "Ljungan virus": {"system": "Ljungan virus", "assay": "Ljungan virus in tissue culture of Vero cells with Pleconaril (CPE)", "type": "cell-based", "excerpt": "as §1\n10 000 000 tissue culture infectious doses (TCID) of Ljungan virus treated with Pleconaril give full cytopathogenic effect (CPE) in 4 days while the control culture with no Pleconaril show full CPE in 3 days.\nas §2"}}, "data": [{"smiles": "Cc1cc(CCCOc2c(C)cc(-c3noc(C(F)(F)F)n3)cc2C)on1", "note": "[Pleconaril, 3-[3,5-dimethyl-4-[[3-(3-methyl-5-isoxazolyl)propyl]oxy]phenyl]-5-(trifluoromethyl)-1,2,4-oxadiazole]", "values": [{"measurement": "animals improved with blood glucose levels decreasing more than 200 mg per dl", "setting": "Bank voles with diabetes", "value": "2 out of six"}, {"measurement": "inhibition of control picornavirus", "setting": "[1]", "value": "no inhibition"}, {"measurement": "clinical condition after the treatment", "setting": "[2]", "value": "improved"}, {"measurement": "course after several months", "setting": "[2]", "value": "signs and symptoms of encephalitis came back"}, {"measurement": "inhibition of sensitive picornavirus (CPE)", "setting": "[3]", "value": "inhibited (no CPE)"}, {"measurement": "No. with blood glucose > 200 md/dL at 120 min", "setting": "Ljungan virus (LV145 SL); Table 2, GTT at 15 weeks, therapy started at 5 weeks, number of mice, infected no treatment 8 of 11", "value": 1}, {"measurement": "No. with blood glucose > 200 md/dL at 120 min (percent)", "setting": "Ljungan virus (LV145 SL); Table 2, GTT at 15 weeks, infected no treatment 73%", "value": 9, "unit": "%"}, {"measurement": "Blood glucose at 60 min", "setting": "Ljungan virus (LV145 SL); Table 2, GTT at 15 weeks, infected no treatment 242", "value": 211}, {"measurement": "Serum insulin", "setting": "Ljungan virus (LV145 SL); Table 2, at 15 weeks, infected no treatment 5.04", "value": 4.15, "unit": "µg/L"}, {"measurement": "Abdominal fat in gram", "setting": "Ljungan virus (LV145 SL); Table 2, male mice at 15 weeks, infected no treatment 2.9", "value": 2.1, "unit": "gram"}, {"measurement": "No. Hyperglycemic", "setting": "Ljungan virus (LV145 SL); Table 7, infected mice, number of mice, no treatment 8 of 11", "value": 1}, {"measurement": "No. Hyperglycemic (percent)", "setting": "Ljungan virus (LV145 SL); Table 7, infected mice, no treatment 73%", "value": 9, "unit": "%"}, {"measurement": "Abdominal fat", "setting": "Ljungan virus (LV145 SL); Table 7, infected mice, spread in brackets, no treatment 2.90 (0.84)", "value": "2.20 (1.0) g"}, {"measurement": "Serum insulin", "setting": "Ljungan virus (LV145 SL); Table 7, infected mice, spread in brackets, no treatment 5.04 (2.30)", "value": "4.15 (5.03) μg/L"}, {"measurement": "Blood glucose @ 60 minutes", "setting": "Ljungan virus (LV145 SL); Table 7, infected mice, spread in brackets, no treatment 242 (75)", "value": "211 (79) mg/dL"}, {"measurement": "frequency of animals with diabetes, as measured by GTT", "setting": "Ljungan virus (LV145 SL)", "value": "reduced the frequency of animals with diabetes"}, {"measurement": "frequency of animals with diabetes, as measured by GTT", "setting": "Ljungan virus (LV145 SL); listed as Pleconaril alone", "value": "reduced the frequency of diabetes"}, {"measurement": "time to full cytopathogenic effect (CPE)", "setting": "Ljungan virus; 10 000 000 TCID of Ljungan virus, Vero cells, 1,6 micrograms Pleconaril per ml, control culture without Pleconaril full CPE in 3 days", "value": 4, "unit": "days"}, {"measurement": "inhibition of Ljungan virus", "setting": "Ljungan virus; 100 TCID of Ljungan virus, Vero cells, 1,6 micrograms Pleconaril per ml", "value": "fully inhibited"}, {"measurement": "sensitivity of Ljungan virus to Pleconaril (conclusion)", "setting": "Ljungan virus; Vero cells, 1,6 micrograms per ml", "value": "semi-sensitive"}]}]}
